One assay has as its system KBM7 cells (wild-type). The assay is described as follows: KBM7 CTG EC50 assay (UBE2M wild-type). The class given is cell-based, human. The conditions noted are these: for EC50: Homo sapiens, KBM-7, 72 h incubation, CellTiter-Glo, read-out: KBM7 CTG EC50 (UBE2M wild-type) Activity Class; for Ratio UBE2M WT to KO: ratio of anti-proliferative activity in KBM7 wild-type versus UBE2M knock-out cells (fold). An excerpt:
(§1) This is a cell viability assay to measure the desired therapeutic effect, i.e. killing of cancer cells. The UBE2M mutant cell line has impaired activity of the Cullin-RING ligase system due to a hypomorphic mutation in UBE2M, which is required for activation of these E3 ligases. By comparison with WT cells, it is possible to estimate the contribution of Cyclin K degradation (which is reduced in UBE2M mut cells) compared to kinase inhibition of CDK12 (which is unaffected in UBE2M mut cells). Since the UBE2M mutation only reduces CRL function without fully abrogating it, this assay may slightly underestimate the effect of degradation because, at high compound concentrations, degradation may still be observed.
(§2) KBM7 cells (wild-type or harboring α hypomorphic UBE2M mutation (Mayor-Ruiz et al., 2019)) were seeded in a white opaque 384-well plate at a density of 1000 cells per well in duplicate, in full medium (IMDM+10% FBS+1% penicillin-streptomycin). Cells were treated with compounds in a 10-point titration with a dilution factor of 1:4 (range: 0 to 20 μM). After 72 h of incubation, the cell viability was determined using the CellTiter-Glo® 2.0 reactant (Promega), pre-diluted 1:4 in mQ water. The luminescence signal was measured using the multimode plate reader EnVision 2105 (Perkin Elmer).
(In general: In ATP-based viability assays light output follows the ATP content of the culture.)

Assay [1] addresses T1, DDB1-CDK12/Cyclin K ternary complex (Homo sapiens, UniProt Q16531+Q9NYV4).
T1 construct: expressed in transfected cells; host or cells: HEK293T wildtype cells, transient PEI transfection
The assay is described as follows: NanoBRET fold-change assay (HaloTag_CDK12 / NanoLuc_DDB1 in HEK293T). Format: cell-based. The conditions noted are these: 10 μM compound, 10 minutes. As for the experimental part:
This assay measures the interaction/recruitment of CDK12/Cyclin K to DDB1, mechanistically validating the molecular glue pharmacology.
HEK293T wildtype cells are seeded 800 k cells/well (DMEM+10% FBS+1% PS) in a 6-well plate and allowed to attach for ˜7 hours followed by a transient transfection of 1.5 μg HaloTag_CDK12 Plasmid [Table 1] and 0.15 μg NanoLuc_DDB1 plasmid [Table 1] per well using PEI. Cells are incubated at 37° C., 5% CO2, harvested after 24 hours and resuspended in assay media (Opti-MEM Reduced serum media, no phenol red, 4% FBS, 1% PS). Cells are adjusted to 2.3×10^5 cells/ml and treated with HaloTag 618 Ligand at 100 nM or DMSO. 8000 cells are seeded per well in triplicates per compound in a white-walled 384-well plate, one negative control treated with DMSO instead of HaloTag 618 Ligand is seeded in triplicates and the 384-well plate is incubated at 37° C., 5% CO2 overnight. Compound stock solutions are prepared in Opti-MEM−/− (Opti-MEM I Reduced serum media, no phenol red) at 8× and used to treat the cells at a final concentration of 1× at 10 μM. Cells and compounds are incubated for 10 minutes at room temperature followed by addition of NanoBRET Nano-Glo substrate following manufacturer's protocols. The plate is shaken for 30 sec followed by immediate measurement of donor emission (NanoBRET Blue at 460 nm) and acceptor emission (BRET Deep Red at 647 nm) for 0.5 s.
(Bioluminescence resonance energy transfer reports proximity on the nanometre scale.)

The test system of a further assay is CCNK. The assay is described as follows: NanoLuc-CCNK degradation assay (HEK293T_Nluc_CCNK-tagged cells). The class given is cell-based. The conditions noted are these: 4 h incubation, HEK293T_Nluc_CCNK-tagged cells; for DC50: read-out: NanoLuc-CCNK degradation DC50 Activity Class. As for the experimental part: The assay helps to elucidate the mechanistic explanation of the cell killing effect of the compounds of the present invention. Cyclin K is fused to a nanoluciferase, light emission is measured as a proxy of Cyclin K abundance. Potency of Cyclin K degradation and cytotoxicity of KBM7 correlate extremely well, further supporting Cyclin K degradation being the main driver of the cell killing, as opposed to inhibition of CDK12 catalytic activity.
HEK293T_Nluc_CCNK-tagged cells were engineered by integrating a nanoluciferase tag at the N-terminus of the endogenous locus of CCNK using CRISPR-Cas9 technology. Briefly, 5.5 million HEK293T cells were co-transfected by PEI with a 1:1 ratio of cutting vector (sgRNA: […]) and repair template (4 μg total plasmid) as previously described (Brand and Winter, 2019). The repair sequence comprises a cassette of puromycinR-P2A-HA-Nluc-(G4S)3 (P2A: self-cleaving peptide 2A, HA: HA-tag, (G4S)3: flexible linker), surrounded by 20-nucleotide microhomologies matching the genomic locus. After 3 days of incubation, the recombinant population was selected by puromycin treatment (2 μg/ml, 5-day treatment). A monoclonal population was obtained by limiting dilution and cassette integration validated by Sanger sequencing.
HEK293T_Nluc_CCNK-tagged cells were seeded in a white opaque 384-well plate at a density of 8000 cells per well in duplicate, in full medium (Opti-MEM I+4% FBS+1% PS). Cells were treated with compounds in a 10-point titration (range: 0 to 10 μM, 1:4 dilution). After 4 h of incubation, Nano-Glo substrate (Promega), pre-diluted in serum-free medium (Opti-MEM I), was added to the cells (1:500 final dilution). The luminescence signal was directly measured using the multimode plate reader EnVision 2105 (Perkin Elmer).

Assay [2] concerns KBM7 cells harboring a hypomorphic UBE2M mutation. The assay can be described thus: KBM7 CTG EC50 assay (UBE2M knock-out). The class given is cell-based. The conditions noted are these: Homo sapiens, KBM-7; 72 h incubation, CellTiter-Glo; read-out: KBM7 CTG EC50 (UBE2M knock-out) Activity Class.
Description: as §1, §2

Usually EC50 stands for the concentration that produces a half-maximal response. One may read the DC50 as the concentration giving 50% degradation.

T1 sequence (Q9NYV4 whole entry): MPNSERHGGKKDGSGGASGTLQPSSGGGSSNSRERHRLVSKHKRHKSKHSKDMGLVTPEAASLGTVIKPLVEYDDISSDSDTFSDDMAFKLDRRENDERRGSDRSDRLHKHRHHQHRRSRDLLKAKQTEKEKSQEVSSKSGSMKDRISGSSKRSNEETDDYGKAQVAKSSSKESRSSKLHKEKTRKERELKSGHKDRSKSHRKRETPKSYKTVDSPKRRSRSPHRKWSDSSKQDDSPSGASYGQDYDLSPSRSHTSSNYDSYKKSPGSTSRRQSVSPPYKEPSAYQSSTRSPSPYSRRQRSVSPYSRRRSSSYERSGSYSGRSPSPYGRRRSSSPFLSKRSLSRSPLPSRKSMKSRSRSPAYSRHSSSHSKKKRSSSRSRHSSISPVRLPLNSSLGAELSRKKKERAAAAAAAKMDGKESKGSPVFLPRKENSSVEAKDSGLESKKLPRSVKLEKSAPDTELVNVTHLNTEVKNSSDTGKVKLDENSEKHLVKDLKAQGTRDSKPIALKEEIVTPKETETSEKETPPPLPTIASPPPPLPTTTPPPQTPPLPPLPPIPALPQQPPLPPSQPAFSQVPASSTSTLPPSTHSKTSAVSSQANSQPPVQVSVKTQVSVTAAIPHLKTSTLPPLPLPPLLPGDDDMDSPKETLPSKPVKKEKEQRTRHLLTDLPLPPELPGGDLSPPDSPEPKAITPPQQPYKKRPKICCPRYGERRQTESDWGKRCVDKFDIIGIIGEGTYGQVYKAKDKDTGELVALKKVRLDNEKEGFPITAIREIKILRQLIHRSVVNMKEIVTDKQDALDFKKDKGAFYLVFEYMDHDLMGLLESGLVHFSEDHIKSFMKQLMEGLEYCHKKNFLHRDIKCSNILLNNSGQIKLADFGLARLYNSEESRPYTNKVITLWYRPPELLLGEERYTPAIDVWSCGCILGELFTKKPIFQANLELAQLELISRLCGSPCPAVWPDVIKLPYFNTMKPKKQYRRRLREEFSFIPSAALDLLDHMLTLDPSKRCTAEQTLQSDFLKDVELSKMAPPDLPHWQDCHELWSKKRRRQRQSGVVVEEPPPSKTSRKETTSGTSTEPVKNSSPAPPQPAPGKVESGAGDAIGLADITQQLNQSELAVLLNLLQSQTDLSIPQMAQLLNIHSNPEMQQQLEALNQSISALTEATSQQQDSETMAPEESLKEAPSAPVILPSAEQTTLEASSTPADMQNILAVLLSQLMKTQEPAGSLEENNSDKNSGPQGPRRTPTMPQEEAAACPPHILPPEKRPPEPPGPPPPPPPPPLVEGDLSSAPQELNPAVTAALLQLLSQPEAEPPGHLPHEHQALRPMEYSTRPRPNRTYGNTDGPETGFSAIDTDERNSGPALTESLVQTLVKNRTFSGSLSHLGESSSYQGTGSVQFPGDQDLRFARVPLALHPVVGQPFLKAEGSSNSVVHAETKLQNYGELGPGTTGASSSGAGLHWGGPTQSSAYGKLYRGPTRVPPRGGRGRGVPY
T1 sequence (Q16531 whole entry): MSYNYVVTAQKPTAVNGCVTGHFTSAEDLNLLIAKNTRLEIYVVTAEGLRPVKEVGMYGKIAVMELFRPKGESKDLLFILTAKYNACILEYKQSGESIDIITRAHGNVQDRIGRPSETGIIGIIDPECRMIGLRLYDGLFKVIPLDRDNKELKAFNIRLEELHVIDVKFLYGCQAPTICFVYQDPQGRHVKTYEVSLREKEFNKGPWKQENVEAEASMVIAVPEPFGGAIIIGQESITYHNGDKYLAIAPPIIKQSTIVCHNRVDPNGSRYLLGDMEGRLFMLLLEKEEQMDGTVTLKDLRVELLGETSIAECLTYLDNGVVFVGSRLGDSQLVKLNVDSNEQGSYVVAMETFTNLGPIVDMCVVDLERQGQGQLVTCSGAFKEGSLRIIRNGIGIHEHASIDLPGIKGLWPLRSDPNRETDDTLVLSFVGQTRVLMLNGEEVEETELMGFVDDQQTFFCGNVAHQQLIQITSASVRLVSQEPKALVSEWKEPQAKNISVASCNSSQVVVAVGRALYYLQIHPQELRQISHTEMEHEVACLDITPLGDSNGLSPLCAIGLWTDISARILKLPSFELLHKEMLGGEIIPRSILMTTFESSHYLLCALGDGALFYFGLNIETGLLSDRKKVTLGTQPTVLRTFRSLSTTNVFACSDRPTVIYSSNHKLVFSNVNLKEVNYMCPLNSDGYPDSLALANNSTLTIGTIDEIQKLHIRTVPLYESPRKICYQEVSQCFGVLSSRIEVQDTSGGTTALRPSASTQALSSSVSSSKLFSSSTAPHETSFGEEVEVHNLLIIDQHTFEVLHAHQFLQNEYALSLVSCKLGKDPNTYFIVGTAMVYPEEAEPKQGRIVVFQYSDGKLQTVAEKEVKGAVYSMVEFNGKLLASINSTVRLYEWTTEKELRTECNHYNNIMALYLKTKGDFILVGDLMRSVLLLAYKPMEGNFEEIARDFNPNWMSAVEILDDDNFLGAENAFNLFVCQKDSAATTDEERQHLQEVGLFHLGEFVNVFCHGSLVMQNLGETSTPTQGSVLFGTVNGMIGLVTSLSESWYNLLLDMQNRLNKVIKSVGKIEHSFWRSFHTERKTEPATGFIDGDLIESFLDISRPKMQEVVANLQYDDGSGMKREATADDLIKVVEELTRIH
T1 sequence (O75909 whole entry partner): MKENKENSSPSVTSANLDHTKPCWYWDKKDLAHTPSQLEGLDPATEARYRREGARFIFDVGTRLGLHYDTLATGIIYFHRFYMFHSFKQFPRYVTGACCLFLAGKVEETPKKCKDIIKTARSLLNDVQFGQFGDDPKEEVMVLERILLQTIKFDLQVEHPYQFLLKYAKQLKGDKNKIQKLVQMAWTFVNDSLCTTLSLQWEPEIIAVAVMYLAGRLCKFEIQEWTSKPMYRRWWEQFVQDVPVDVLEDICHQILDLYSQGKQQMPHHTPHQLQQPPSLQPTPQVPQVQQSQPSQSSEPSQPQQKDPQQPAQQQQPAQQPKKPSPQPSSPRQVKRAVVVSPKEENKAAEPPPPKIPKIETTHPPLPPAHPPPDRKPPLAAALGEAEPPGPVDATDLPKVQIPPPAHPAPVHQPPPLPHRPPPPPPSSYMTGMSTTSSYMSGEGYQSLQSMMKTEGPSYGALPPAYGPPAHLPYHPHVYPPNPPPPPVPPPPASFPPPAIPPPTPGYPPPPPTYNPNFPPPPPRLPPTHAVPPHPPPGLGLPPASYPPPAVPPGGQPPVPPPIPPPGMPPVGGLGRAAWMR

As for `O=C(Cc1cn2cc(Cl)cc(Cl)c2n1)Nc1ncc(C(F)(F)F)s1` [Example 3-8, 2-(6,8-dichloroimidazo[1,2-a]pyridin-2-yl)-N-(5-(trifluoromethyl)thiazol-2-yl)acetamide], in the assay with KBM7 cells (wild-type), the EC50 is at most 0.25 µM and the “Ratio UBE2M WT to KO” value was 51.5. The “NanoBRET fold-change Activity Class” value in assay [1] was “A (greater than 4-fold increase)”. In the assay with CCNK, the DC50 was at most 0.1 µM. For the same molecule, the EC50 in assay [2] was at most 0.25 µM.
Turning to `Cc1ccc2c(CC(=O)Nc3cc(C4CC4)[nH]n3)coc2c1C` [Example 3-46, N-(5-cyclopropyl-1H-pyrazol-3-yl)-2-(6,7-dimethylbenzofuran-3-yl)acetamide], in the assay on KBM7 cells (wild-type), the EC50 fell in the range of 0.5 to 1 µM and the “Ratio UBE2M WT to KO” value is over 10. The “NanoBRET fold-change Activity Class” value in assay [1] is listed as “B (3-4 fold increase)”. The “NanoLuc-CCNK degradation DC50 Activity Class” value in the assay with CCNK is “D (10 μM≤DC50<1.0 μM)”. The EC50 in assay [2] was over 10 µM.
In the case of `Cc1cc(NC(=O)Cc2cn3cc(F)ccc3n2)n[nH]1` [Example 3-56, 2-(6-fluoroimidazo[1,2-a]pyridin-2-yl)-N-(5-methyl-1H-pyrazol-3-yl)acetamide], in the assay on KBM7 cells (wild-type), the EC50 lay in the range of 0.25 to 0.5 µM and the “Ratio UBE2M WT to KO” value is listed as over 10. Also, the “NanoBRET fold-change Activity Class” value in assay [1] is “C (2-3 fold increase)”. The DC50 in the assay on CCNK was over 10 µM. The EC50 in assay [2] was over 10 µM.
`Cc1ccc2c(CC(=O)Nc3ncc(C(C)C)s3)coc2c1C` [Example 3-2, 2-(6,7-dimethylbenzofuran-3-yl)-N-(5-isopropylthiazol-2-yl)acetamide]: the figures for the EC50 (with KBM7 cells (wild-type); in assay [2]) were at most 0.25 µM and 0.5 to 1 µM, respectively. In addition, the “Ratio UBE2M WT to KO” value in the assay with KBM7 cells (wild-type) came out at 12.7. In addition, the “NanoBRET fold-change Activity Class” value in assay [1] is reported as “B (3-4 fold increase)”. For the same molecule, the DC50 in the assay on CCNK was at most 0.1 µM.
For `Cc1ccc2c(ccn2CC(=O)Nc2ncc(C(F)(F)F)s2)c1` [Example 3-37, 2-(5-methyl-1H-indol-1-yl)-N-(5-(trifluoromethyl)thiazol-2-yl)acetamide] the same measures were 1 to 10 µM, over 10 µM, over 4, “C (2-3 fold increase)” and over 10 µM.
Take `Cc1ccc(N2CC(C(=O)Nc3ncc(C(F)(F)F)s3)CC2=O)cc1` (stereo not shown) [Example 3-16, 5-oxo-1-(p-tolyl)-N-(5-(trifluoromethyl)thiazol-2-yl)pyrrolidine-3-carboxamide]: the half-maximal effective concentration (EC50) was 0.25 to 0.5 µM in the assay on KBM7 cells (wild-type) and over 10 µM in assay [2]. For the same molecule, the “Ratio UBE2M WT to KO” value in the assay on KBM7 cells (wild-type) is reported as over 10. Further, the “NanoBRET fold-change Activity Class” value in assay [1] is “C (2-3 fold increase)”. The “NanoLuc-CCNK degradation DC50 Activity Class” value with CCNK is given as “C (1.0 μM≤DC50<0.50 μM)”.
Regarding `O=C(CCn1cnc2ccc(Br)cc2c1=O)Nc1ncc(C(F)(F)F)s1` [Example 3-65, 3-(6-bromo-4-oxoquinazolin-3(4H)-yl)-N-(5-(trifluoromethyl)thiazol-2-yl)propanamide], in the assay on KBM7 cells (wild-type), the EC50 fell in the range of 0.5 to 1 µM and the “Ratio UBE2M WT to KO” value is reported as over 13. Moreover, the “NanoBRET fold-change Activity Class” value in assay [1] is listed as “B (3-4 fold increase)”. Further, in the assay with CCNK, the “NanoLuc-CCNK degradation DC50 Activity Class” value is listed as “B (0.50 μM≤DC50<0.10 μM)”. In addition, in assay [2], the EC50 was over 10 µM.
With `Cc1c(CC(=O)Nc2ncc(C(F)(F)F)s2)sc2ccccc12` [Example 3-12, 2-(3-methylbenzo[b]thiophen-2-yl)-N-(5-(trifluoromethyl)thiazol-2-yl)acetamide], the EC50 (in the assay on KBM7 cells (wild-type); in assay [2]) was over 10 µM each time. Moreover, in the assay on KBM7 cells (wild-type), the “Ratio UBE2M WT to KO” value is on record as over 10. In assay [1], the “NanoBRET fold-change Activity Class” value is given as “D (1-2 fold increase)”. In the assay with CCNK, the DC50 is over 10 µM.
As for `O=C(Nc1ncc(C(F)(F)F)s1)C1CC(=O)N(c2ccc3c(c2)OCO3)C1` (stereo not shown) [Example 3-25, 1-(benzo[d][1,3]dioxol-5-yl)-5-oxo-N-(5-(trifluoromethyl)thiazol-2-yl)pyrrolidine-3-carboxamide], in the assay on KBM7 cells (wild-type), the EC50 was 0.25 to 0.5 µM and the “Ratio UBE2M WT to KO” value was over 10. For the same molecule, in assay [1], the “NanoBRET fold-change Activity Class” value is “B (3-4 fold increase)”. The DC50 in the assay with CCNK was over 10 µM. Further, in assay [2], the EC50 was over 10 µM.
Take `O=C(Nc1ncc(C(F)(F)F)s1)C1CC(=O)N(Cc2ccc(Cl)cc2)C1` (stereo not shown) [Example 3-28, 1-(4-chlorobenzyl)-5-oxo-N-(5-(trifluoromethyl)thiazol-2-yl)pyrrolidine-3-carboxamide]: in the assay with KBM7 cells (wild-type), the EC50 is at most 0.25 µM and the “Ratio UBE2M WT to KO” value is 42.7. The “NanoBRET fold-change Activity Class” value in assay [1] is listed as “B (3-4 fold increase)”. In addition, in the assay on CCNK, the “NanoLuc-CCNK degradation DC50 Activity Class” value is reported as “C (1.0 μM≤DC50<0.50 μM)”. Further, the EC50 in assay [2] lay within 1 to 10 µM.
Take `O=C(Cc1cn2cc(F)ccc2n1)Nc1cc(Br)[nH]n1` [Example 3-58, N-(5-bromo-1H-pyrazol-3-yl)-2-(6-fluoroimidazo[1,2-a]pyridin-2-yl)acetamide]: in the assay on KBM7 cells (wild-type), the EC50 was at most 0.25 µM and the “Ratio UBE2M WT to KO” value is over 10. In addition, in assay [1], the “NanoBRET fold-change Activity Class” value is on record as “C (2-3 fold increase)”. Further, the DC50 with CCNK is over 10 µM. Besides, the EC50 in assay [2] was over 10 µM.
Turning to `Cc1ccc2c(CC(=O)Nc3ccc(Cl)cn3)coc2c1C` [Example 3-55, N-(5-chloropyridin-2-yl)-2-(6,7-dimethylbenzofuran-3-yl)acetamide], in the assay on KBM7 cells (wild-type), the EC50 lay in the range of 0.25 to 0.5 µM and the “Ratio UBE2M WT to KO” value turned out to be 9.2. The “NanoBRET fold-change Activity Class” value in assay [1] was “B (3-4 fold increase)”. Also, the “NanoLuc-CCNK degradation DC50 Activity Class” value in the assay on CCNK was “C (1.0 μM≤DC50<0.50 μM)”. For the same molecule, in assay [2], the EC50 lay in the range of 1 to 10 µM.
On to `O=C(Cc1cccc2ccncc12)Nc1ncc(C(F)(F)F)s1` [Example 3-33, 2-(isoquinolin-8-yl)-N-(5-(trifluoromethyl)thiazol-2-yl)acetamide], for which the EC50 is at most 0.25 µM in the assay with KBM7 cells (wild-type) and 1 to 10 µM in assay [2]. Also, in the assay on KBM7 cells (wild-type), the “Ratio UBE2M WT to KO” value is given as 64.7. Moreover, in assay [1], the “NanoBRET fold-change Activity Class” value is “A (greater than 4-fold increase)”. In addition, the DC50 in the assay on CCNK is over 10 µM.
For `O=C(Cc1cc2ccccc2s1)Nc1ncc(C(F)(F)F)s1` [Example 3-10, 2-(benzo[b]thiophen-2-yl)-N-(5-(trifluoromethyl)thiazol-2-yl)acetamide] the same measures were at most 0.25 µM, 1 to 10 µM, 23.6, “C (2-3 fold increase)” and at most 0.1 µM.

The values are drawn from US20240132485A1, “HETEROCYCLIC CULLIN RING UBIQUITIN LIGASE COMPOUNDS AND USES THEREOF” (CEMM - FORSCHUNGSZENTRUM FÜR MOLEKULARE MEDIZIN GMBH, priority 2020, published 2024).
